# In patent publication US11918552B2, “N-acetylcysteine for use as antibacterial agent” (priority 2016, dated 2024):
# What was measured:
# [1] = test system: S. maltophilia clinical isolates; experiment: MIC by broth microdilution; assay type: cell-based; conditions: Stenotrophomonas maltophilia
# [2] = test system: BCC (B. cepacia, B. cenocepacia, B. multivorans, B. metallica, B. seminalis, B. stabilis) clinical isolates; experiment: organism not typed; assay type: cell-based, Burkholderia cepacia complex
# S. maltophilia isolates [3] = experiment: Effect of sub-MIC concentrations on growth curves; assay type: cell-based, Stenotrophomonas maltophilia; conditions: sub-MIC concentrations (4 and 8 mg/ml), all 4 tested S. maltophilia isolates
# BCC isolates [4] = experiment: Effect of sub-MIC concentrations on growth curves; assay type: cell-based, Burkholderia cepacia complex; conditions: sub-MIC concentrations (4 and 8 mg/ml), all 4 tested BCC isolates
# S. maltophilia isolates [5] = experiment: Time-kill assay; assay type: cell-based, Stenotrophomonas maltophilia; conditions: NAC 32 mg/ml
# BCC isolates [6] = experiment: Time-kill assay; assay type: cell-based, Burkholderia cepacia complex; conditions: NAC 32 mg/ml
# S. maltophilia biofilm = experiment: Inhibition of biofilm formation, MBEC High-Throughput Assay, viable cell count; assay type: cell-based, Stenotrophomonas maltophilia; conditions: NAC 4, 8 and 16 mg/ml, all S. maltophilia isolates
# BCC biofilm = experiment: as above; assay type: cell-based, Burkholderia cepacia complex; conditions: NAC 4, 8 and 16 mg/ml, two BCC isolates
smiles,measurement,setting,value
"CC(=O)N[C@@H](CS)C(=O)O [NAC, N-acetylcysteine]",MIC,[1]; nine of 16 S. maltophilia clinical isolates,16 mg/mL
same,MIC,[1]; remaining S. maltophilia isolates (of 16),32 mg/mL
same,MIC,[2]; remaining BCC isolates (of 16),32 mg/mL
same,MIC,[2]; seven of 16 BCC clinical isolates,16 mg/mL
same,Effect on growth,S. maltophilia isolates [3],slowed down the growth
same,Effect on growth,BCC isolates [4],slowed down the growth
same,Reduction of bacterial inoculum (bactericidal),S. maltophilia isolates [5]; one S. maltophilia isolate,more than 3 logs
same,Reduction of bacterial inoculum,S. maltophilia isolates [5]; remaining S. maltophilia isolates,< 1 log CFU/ml
same,Reduction of bacterial inoculum (bactericidal),BCC isolates [6]; one BCC isolate,more than 3 logs
same,Reduction of bacterial inoculum,BCC isolates [6]; remaining BCC isolates,< 1 log CFU/ml
same,Inhibition of biofilm formation,S. maltophilia biofilm,inhibit biofilm formation in a dose-dependent fashion
same,Inhibition of biofilm formation,BCC biofilm,inhibit biofilm formation in a dose-dependent fashion
